From paper PMC9325707, “Vav2 is a novel APP-interacting protein that regulates APP protein level” (Scientific Reports, 2022)
Non-standard residues stand in square brackets, D forms with d. Residues, ends and D or L forms follow the SMILES beside them. pY = N[C@@H](Cc1ccc(OP(=O)(O)O)cc1)C(=O)O

What was measured:
Vav2-SH2 domain [1] = biological target: T1, Vav2-SH2 domain (Homo sapiens, UniProt P52735); assay: ITC binding of APP peptides to Vav2-SH2; conditions: 298 K, 10 mM Tris/HCl, 100 mM NaCl
T1 construct: the DNA fragment encoding the SH2 domain of Vav2 (residues 659–771) was cloned into a pET28a (+) (Novagen) plasmid; 6xHis (N, cleaved yes); made in house; host or cells: Escherichia coli BL21 (DE3)
T1 sequence (P52735 659-771): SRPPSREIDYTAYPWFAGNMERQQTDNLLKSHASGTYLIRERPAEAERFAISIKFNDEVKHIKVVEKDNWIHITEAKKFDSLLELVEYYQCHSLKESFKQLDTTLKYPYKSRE
Description: For NMR and ITC experiments, the DNA fragment encoding the SH2 domain of Vav2 (residues 659–771) was cloned into a pET28a (+) (Novagen) plasmid as described previously, generating a fusion protein with an N-terminus 6 × His tag. For GST pull-down experiments, the Vav2-SH2 was subcloned into pGEX4T-1 vector. The APP expression plasmid pAPPsw and the Vav2 expression plasmid pCMV5-myc-Vav2 were constructed as previously described[55],[66]. Mutants were generated by PCR mediated site-directed mutagenesis. All the constructs were verified by DNA sequencing.
The recombinant plasmids harboring His-tagged or GST-tagged Vav2-SH2 were transformed into Escherichia coli BL21 (DE3) (Novagen) strain. Cells were grown at 37 °C up to an A600 nm of 0.8, and then were induced with 0.5 mM IPTG at 25 °C for 8 h. […] Protein concentrations were estimated with absorbance spectroscopy using the molar absorption coefficient. […]
ITC experiments were performed at 298 K on a PEAQ-ITC titration calorimeter (MicroCal, Northampton, MA). […] ITC data were analyzed with a single-site binding model using Microcal PEAQ-ITC software.

[2] = biological target: APP pY682 peptide (Homo sapiens) (UniProt P05067); conditions: cited from earlier work
Sequence of APP pY682 peptide (Homo sapiens) (P05067 whole entry, looked up, the tested form may be a part): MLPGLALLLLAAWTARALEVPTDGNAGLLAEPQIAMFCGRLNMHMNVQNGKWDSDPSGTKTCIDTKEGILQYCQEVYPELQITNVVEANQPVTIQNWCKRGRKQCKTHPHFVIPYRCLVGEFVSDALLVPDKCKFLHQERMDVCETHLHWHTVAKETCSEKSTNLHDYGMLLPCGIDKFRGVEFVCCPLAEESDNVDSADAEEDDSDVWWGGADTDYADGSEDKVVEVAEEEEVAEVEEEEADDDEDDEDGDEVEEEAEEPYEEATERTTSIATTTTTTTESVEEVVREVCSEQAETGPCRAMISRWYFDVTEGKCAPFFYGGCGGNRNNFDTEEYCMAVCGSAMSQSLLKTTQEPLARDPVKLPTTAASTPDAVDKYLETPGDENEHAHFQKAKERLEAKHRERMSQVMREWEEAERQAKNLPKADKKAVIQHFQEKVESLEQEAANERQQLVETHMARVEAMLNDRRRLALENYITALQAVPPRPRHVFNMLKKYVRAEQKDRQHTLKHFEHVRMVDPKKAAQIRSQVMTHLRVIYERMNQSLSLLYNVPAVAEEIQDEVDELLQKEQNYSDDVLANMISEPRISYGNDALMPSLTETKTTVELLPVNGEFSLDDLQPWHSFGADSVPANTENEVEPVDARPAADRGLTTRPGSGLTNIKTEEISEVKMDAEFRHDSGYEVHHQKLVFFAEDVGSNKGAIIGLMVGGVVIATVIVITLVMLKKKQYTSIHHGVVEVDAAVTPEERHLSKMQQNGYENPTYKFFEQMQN

Vav2-SH2 domain [3] = biological target: T1, Vav2-SH2 domain; assay: NMR titration (2D 1H-15N HSQC) of 15N-labeled Vav2-SH2 with APP peptides; assay type: binding; conditions: 0.1 mM 15N-Vav2-SH2, 20 mM Tris/HCl, 100 mM NaCl, 3 mM DTT, 90% H2O/10% D2O, pH 7.0, 293 K, 600 MHz; protein:peptide up to 1:3 (APP-pY682) or 1:4 (APP-Y682)
Experimental: The recombinant plasmids harboring His-tagged or GST-tagged Vav2-SH2 were transformed into Escherichia coli BL21 (DE3) (Novagen) strain. Cells were grown at 37 °C up to an A600 nm of 0.8, and then were induced with 0.5 mM IPTG at 25 °C for 8 h. For the production of uniformly ^15N-labeled samples, cells were grown in minimal medium using ^15NH4CL (0.5 g/L) as the sole nitrogen source. ^15N-NH4Cl was purchased from Cambridge Isotope Laboratories, Inc. The His-tagged proteins were purified by a chelated-nickel column followed by Thrombin protease treatment to remove the tag as previous described. The GST and GST fusion proteins were purified using immobilized glutathione. All proteins were further purified on a Superdex75 gel-filtration column (GE Healthcare, Piscataway, NJ, USA). The purity of proteins was confirmed by SDS–PAGE. Protein concentrations were estimated with absorbance spectroscopy using the molar absorption coefficient. […]
The NMR sample of the apo Vav2-SH2 contained 0.1 mM of protein was dissolved in NMR buffer: 20 mM Tris/HCl with 100 mM NaCl, 3 mM DTT in 90% H2O, 10% D2O (pH 7.0). […] A series of ^1H–^15N HSQC spectra were recorded as the titrant gradually titrated into the protein solutions using the Bruker hsqcfpf3gpphwg pulse program. […] NMR data were processed with NMRPipe[67] and analyzed using Sparky3 (Goddard and Kneller, University of California, San Francisco). […]

full-length APPsw = assay: GST pull-down of full-length APPsw from 20E2 cell lysate; assay type: binding; conditions: 20E2 cell lysate 0.2 mg, 1 mg GST fusion on glutathione-agarose, 2 h; western blot (C20)
Experimental: The recombinant plasmids harboring His-tagged or GST-tagged Vav2-SH2 were transformed into Escherichia coli BL21 (DE3) (Novagen) strain. Cells were grown at 37 °C up to an A600 nm of 0.8, and then were induced with 0.5 mM IPTG at 25 °C for 8 h. For the production of uniformly ^15N-labeled samples, cells were grown in minimal medium using ^15NH4CL (0.5 g/L) as the sole nitrogen source. ^15N-NH4Cl was purchased from Cambridge Isotope Laboratories, Inc. The His-tagged proteins were purified by a chelated-nickel column followed by Thrombin protease treatment to remove the tag as previous described. The GST and GST fusion proteins were purified using immobilized glutathione. All proteins were further purified on a Superdex75 gel-filtration column (GE Healthcare, Piscataway, NJ, USA). The purity of proteins was confirmed by SDS–PAGE. Protein concentrations were estimated with absorbance spectroscopy using the molar absorption coefficient.
One hundred microliter glutathione-agarose beads were incubated with 1 mg purified GST or indicated GST-SH2 fusions and the mutant GST-SH2^R680A for 2 h at 4 °C in GST binding buffer (20 mM Tris/HCl, pH 7.4, 150 mM NaCl and 1 mM EDTA, 0.5% TritonX-100). […] After washing 4 times with GST binding buffer, beads were boiled in SDS sample buffer, run on 12% SDS–PAGE gel and analyzed by Coomassie or immunoblotting.

In the case of `C[C@@H](O)[C@H](NC(=O)[C@@H]1CCCN1C(=O)[C@H](CC(N)=O)NC(=O)[C@H](CCC(=O)O)NC(=O)[C@H](Cc1ccc(OP(=O)(O)O)cc1)NC(=O)CNC(=O)[C@H](CC(N)=O)NC(=O)[C@@H](N)CCC(N)=O)C(=O)O` [APP-pY682] (H-QNG[pY]ENPT-OH), the Kd (Vav2-SH2 domain [1]; pH 7.4, 0.75 mM peptide titrated into 30 μM Vav2-SH2, single-site binding model) is reported as 860 nM.

In the case of Grb2 SH2 (from UniProt P62993), the Kd [2] is given as 290 nM.

In the case of QNGYENPT [APP-Y682], the “binding in ITC (result in words)” value (Vav2-SH2 domain [1]; pH 7.4, 0.75 mM peptide titrated into 30 μM Vav2-SH2) is reported as “no binding” and the “chemical shift perturbations (CSPs) in 1H-15N HSQC of Vav2-SH2” value (Vav2-SH2 domain [3]) is reported as “did not induce any chemical shift perturbations”.

B1: GST-Vav2-SH2: wild-type GST-Vav2-SH2 protein (protein)
chain: SRPPSREIDYTAYPWFAGNMERQQTDNLLKSHASGTYLIRERPAEAERFAISIKFNDEVKHIKVVEKDNWIHITEAKKFDSLLELVEYYQCHSLKESFKQLDTTLKYPYKSRE
modifications: left off: GST, end not stated, kept
notes: wild-type GST-Vav2-SH2 protein
In the case of B1, the “binding to full-length APPsw in GST pull-down (result in words)” value (full-length APPsw) is reported as “bound selectively to full-length APPsw”.

B2: R680A mutant: R680A mutant of GST-Vav2-SH2 protein (negative control) (protein)
chain: SRPPSREIDYTAYPWFAGNMEAQQTDNLLKSHASGTYLIRERPAEAERFAISIKFNDEVKHIKVVEKDNWIHITEAKKFDSLLELVEYYQCHSLKESFKQLDTTLKYPYKSRE
modifications: left off: GST, end not stated, kept
In the case of B2, the “binding to full-length APPsw in GST pull-down (result in words)” value (full-length APPsw) is reported as “not GST alone or the R680A mutant bound selectively to full-length APPsw”.
